Data published in patent publication US10190093B2, “Artificial oocyte activation” (The Curators of the University of Missouri, priority 2013, dated 2019).
Marks after values point to notes of the source that are not given here.

Experiments:
SCNT embryos = experiment: In vitro development of SCNT embryos treated with Scriptaid or TPEN; assay type: cell-based, pig; settings: SCNT + Scriptaid
Description: Activated oocytes were washed three times in PZM3 then incubated at 38.5° C., 5% CO2 until the embryos were examined on either day 2, 6 or 7. At the end of the culture, where applicable, the frequency of cleaved embryos and blastocysts, and total cell number in the blastocysts were recorded. Hoechst 33342 (1.2 mg/mL) was used to stain nuclei and the embryos were then evaluated by epi-fluorescence microscopy.
Next, the optimal concentration and duration of TPEN ([…], 30 min) was used to artificially activate reconstructed SCNT embryos. […] Thus lower concentrations of TPEN (5-10 μM) can enhance embryo development when introduced after conventional oocyte activation.

MII oocytes = experiment: Intracellular calcium measurement (fura-2); assay type: cell-based, pig; settings: oocytes incubated with thimerosal, positive control
Description: The zonae pellucidae were removed after maturation and zona-free oocytes were loaded with the Ca^2+ indicator dye, fura-2. For this purpose, they were incubated in the presence of […] of the acetoxymethyl ester form of the dye and 0.02% pluronic F-127 for 40-50 min (both from Invitrogen). The dye loaded oocytes were transferred into a chamber with a cover-glass bottom and the chamber was then placed on the heated stage of an inverted microscope. Changes in the intracellular free Ca^2+ concentration were recorded using InCytIm2, a dual-wavelength fluorescence imaging system (Intracellular Imaging, Inc.; Cincinnati, Ohio). During measurements the emitted fluorescence was detected at 510 nm after exciting the dye alternately at 340 and 380 nm. The ratio of the two emitted fluorescence intensities was calculated and the data are presented as fluorescence ratio values. Ratios of 1.0 and 5.0 correspond to about 100 and 1,200 nM Ca^2+, respectively. In each treatment group the measurements were repeated at least 5 times using different oocytes.

Q: Which “% blastocysts” value (SCNT embryos) does the source give for `O=C(CCCCCN1C(=O)c2cccc3cccc(c23)C1=O)NO` [Scriptaid] here?
A: The value was 22.7%^b.

Q: With `C[CH2][Hg][S]c1ccccc1C(=O)[O-].[Na+]` [thimerosal] as the compound, how does the “intracellular Ca2+ increase” value (MII oocytes) read?
A: Its value is “could induce Ca^2+ increase”.
